Measurements taken from patent US20260265256A1 (IMPACT THERAPEUTICS (SHANGHAI), INC., priority 2023, published 2026).

Experiments:
[1] = molecular target: recombinant poly(ADP-ribose) polymerase 2 (PARP2) (Homo sapiens, UniProt Q9UGN5); assay: PARP2 chemiluminescent assay; type: biochemical; conditions: PARP2 enzyme activity, chemiluminescence, 40 ng enzyme/well
Procedure: The solution of recombinant poly(ADP-ribose) polymerase 1 and 2 (PARP1 and PARP2) (40 ng enzyme/well) and the compounds to be tested were mixed, respectively. The solutions were added to a 96-well plate coated with histone mixture, incubated at room temperature for 1 h, then 50 μL 0.3 ng/mL Streptavidin-HRP was added to each well. The plates were incubated for 30 minutes at room temperature. Finally, the plates were treated with streptavidin-HRP followed by addition of the ELISA ECL substrate to produce chemiluminescence that can be measured using a chemiluminescence reader. Inhibition of the tested compound to PARP1/2 enzyme activity was calculated according to the following formula. [formula] IC50 value is obtained by fitting the s-shaped dose response curve equation by using XL Fit software.

[2] = molecular target: T1, PDE3A (Homo sapiens, UniProt Q14432); assay: PDE3A fluorescence polarization (FP) assay; type: biochemical; conditions: 2 nM PDE3A, 0.2 μM FAM-cAMP, read-out: IC50 (μM), PDE3A enzyme activity
T1 construct: purchased Sino Biological 11908-H20B1
T1 sequence (Q14432 669-1141 limits assumed): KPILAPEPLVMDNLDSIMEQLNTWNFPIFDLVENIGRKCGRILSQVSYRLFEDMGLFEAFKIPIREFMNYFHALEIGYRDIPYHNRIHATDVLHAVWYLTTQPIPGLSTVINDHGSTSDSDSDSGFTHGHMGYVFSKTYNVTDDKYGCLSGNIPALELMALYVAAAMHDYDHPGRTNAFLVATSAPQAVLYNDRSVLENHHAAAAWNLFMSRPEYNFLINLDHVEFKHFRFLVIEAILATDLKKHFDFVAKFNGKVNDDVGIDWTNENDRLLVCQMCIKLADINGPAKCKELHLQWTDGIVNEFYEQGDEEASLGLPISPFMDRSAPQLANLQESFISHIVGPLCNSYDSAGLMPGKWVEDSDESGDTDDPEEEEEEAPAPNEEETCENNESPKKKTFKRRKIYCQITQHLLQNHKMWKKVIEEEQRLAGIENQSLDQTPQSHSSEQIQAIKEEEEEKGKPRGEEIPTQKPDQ
Procedure: A PDE3A fluorescence polarization (FP) assay in a multi-step format was performed using black, round bottom 384-well plates (Corning, 4514). The testing compounds were serially diluted from stock solutions to 11 concentrations with a 3-fold dilution factor using DMSO. Fifty nL of compound dilutions was mixed with 5 μL of reaction buffer (10 mM Tris-HCl, pH 7.2, 10 mM MgCl2, 0.05% NaN3, 0.1% phosphate-free BSA) containing 0.2 μM FAM-cAMP (BPS, 60200) and 2 nM PDE3A (Sino Biological, 11908-H20B1) enzyme, and incubated for 60 min at 25° C. Afterwards, 15 μL binding agent mixture (Molecular Devices, R8124) was added to each well and the plate was incubated for 60 min at 25° C. The plate was loaded to a BMG PHERAstar FSX to read Fluorescence Polarization (FP) values at a setting of: Ex: 485 nm and Em: 520 nm. Emission light intensity with polarizers parallel (Em|) and emission light intensity with polarizers perpendicular (Em⊥) were recorded. The Polarization (mP) values were calculated using the following formula: mP=(SignalEm|−SignalEm⊥)/(SignalEm|+SignalEm⊥).
Data analysis: • 1) The inhibition % of a compound dose is calculated as:
[formula] • wherein mPMin and mPMax refer to the polarization readings in the condition of substrate only and substrate+enzyme, respectively. • 2) The IC50 values were calculated from non-linear curve fitting using following regression equation using a commercial curve fitting software GraphPad Prism 9.2.0.
wherein X refers to Log of compound concentration and Y refers to % Inhibition.
Table 3 summarize the inhibitory effects of compounds on PDE3A enzyme activity (IC50).

[3] = system: MDA-MB-436 cells; assay: Growth inhibition assay against BRCA mutant human breast cancer MDA-MB-436 cell line (CCK-8, 7 days); type: cell-based; conditions: 168 h, MDA-MB-436, 7 days, read-out: IC50 (nM), proliferation of human breast cancer cells MDA-MB-436
In short: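 Seeded 3000 cells/well overnight, then exposed to test compound (0.10% DMSO control) for 7 days at 37 °C, 5% CO2, with compound-containing medium changed on day 4. CCK-8 added for 4 h; OD = A450 − A650. Survival % relative to DMSO after background subtraction, plotted against concentration for IC50.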

Sequence of recombinant poly(ADP-ribose) polymerase 2 (PARP2) (Q9UGN5 whole entry): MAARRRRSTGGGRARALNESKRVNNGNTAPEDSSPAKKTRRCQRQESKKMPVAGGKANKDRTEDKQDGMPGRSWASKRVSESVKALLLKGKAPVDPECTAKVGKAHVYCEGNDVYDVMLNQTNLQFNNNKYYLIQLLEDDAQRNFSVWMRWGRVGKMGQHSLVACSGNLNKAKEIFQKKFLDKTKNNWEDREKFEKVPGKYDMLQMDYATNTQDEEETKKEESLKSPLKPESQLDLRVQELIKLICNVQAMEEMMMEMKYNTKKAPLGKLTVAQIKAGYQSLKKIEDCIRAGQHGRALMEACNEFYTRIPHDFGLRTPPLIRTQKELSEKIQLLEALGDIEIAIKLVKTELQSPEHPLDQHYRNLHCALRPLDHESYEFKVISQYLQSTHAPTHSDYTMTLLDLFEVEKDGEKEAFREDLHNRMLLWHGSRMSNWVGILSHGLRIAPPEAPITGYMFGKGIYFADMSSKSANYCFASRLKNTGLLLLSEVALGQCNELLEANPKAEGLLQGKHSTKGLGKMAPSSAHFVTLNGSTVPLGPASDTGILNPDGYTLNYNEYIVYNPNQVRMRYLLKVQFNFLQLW

Row | SMILES | IC50 [1] | IC50 [2] | IC50 [3]
1 | CNC(=O)c1ccc(-n2ncc3c2CN(Cc2ccc4c([nH]c(=O)c5c(C)cnn54)c2F)C3)cn1 [Example 1-2, 5-(5-((6-fluoro-3-methyl-4-oxo-4,5-dihydropyrazolo[1,5-a]quinoxalin-7-yl)methyl)-5,6-dihydropyrrolo[3,4-c]pyrazol-1(4H)-yl)-N-methylpicolinamide] | > 1000 nM | > 25 µM | > 100 nM
2 | CCNC(=O)c1ccc(-n2cc3c(n2)CN(Cc2ccc4c([nH]c(=O)c5c(C)cnn54)c2F)C3)cn1 [Example 6, 5-(5-((6-fluoro-3-methyl-4-oxo-4,5-dihydropyrazolo[1,5-a]quinoxalin-7-yl)methyl)-5,6-dihydropyrrolo[3,4-c]pyrazol-2(4H)-yl)-N-ethylpicolinamide] | > 10000 nM | > 30 µM | 2.07 nM
3 | CNC(=O)c1ccc(-n2cc3c(n2)CN(Cc2ccc4c([nH]c(=O)c5c(F)cnn54)c2F)C3)cn1 [Example 13, 5-(5-((3,6-difluoro-4-oxo-4,5-dihydropyrazolo[1,5-a]quinoxalin-7-yl)methyl)-5,6-dihydropyrrolo[3,4-c]pyrazol-2(4H)-yl)-N-methylpicolinamide] | 42 nM | > 30 µM | 0.99 nM
4 | CNC(=O)c1ccc(-n2cc3c(n2)CN(Cc2ccc4c([nH]c(=O)c5c(F)cnn54)c2F)C3)c(F)n1 [Example 15, 5-(5-((3,6-difluoro-4-oxo-4,5-dihydropyrazolo[1,5-a]quinoxalin-7-yl)methyl)-5,6-dihydropyrrolo[3,4-c]pyrazol-2(4H)-yl)-6-fluoro-N-methylpicolinamide] | 373 nM | > 30 µM | 1.36 nM
5 | CNC(=O)c1ccc(-n2cc3c(n2)CN(Cc2ccc4c([nH]c(=O)c5c(F)cnn54)c2F)C3)c(Cl)n1 [Example 16, 5-(5-((3,6-difluoro-4-oxo-4,5-dihydropyrazolo[1,5-a]quinoxalin-7-yl)methyl)-5,6-dihydropyrrolo[3,4-c]pyrazol-2(4H)-yl)-6-chloro-N-methylpicolinamide] | 1190 nM | > 30 µM | 5.65 nM
6 | CCNC(=O)c1ccc(-n2cc3c(n2)CN(Cc2ccc4c([nH]c(=O)c5c(F)cnn54)c2F)C3)c(F)n1 [Example 19, 5-(5-((3,6-difluoro-4-oxo-4,5-dihydropyrazolo[1,5-a]quinoxalin-7-yl)methyl)-5,6-dihydropyrrolo[3,4-c]pyrazol-2(4H)-yl)-N-ethyl-6-fluoropicolinamide] | > 10000 nM | > 30 µM | 1.57 nM
7 | CNC(=O)c1ccc(-n2cc3c(n2)CN(Cc2ccc4c([nH]c(=O)c5occc54)c2F)C3)cn1 [Example 28, 5-(5-((6-fluoro-4-oxo-4,5-dihydrofuro[2,3-c]quinolin-7-yl)methyl)-5,6-dihydropyrrolo[3,4-c]pyrazol-2(4H)-yl)-N-methylpicolinamide] | 119 nM | 29.4 µM | 0.76 nM
8 | CNC(=O)c1ccc(-n2cc3c(n2)CN(Cc2ccc4c([nH]c(=O)c5nn(C)cc54)c2F)C3)cn1 [Example 29, 5-(5-((6-fluoro-2-methyl-4-oxo-4,5-dihydro-2H-pyrazolo[3,4-c]quinolin-7-yl)methyl)-5,6-dihydropyrrolo[3,4-c]pyrazol-2(4H)-yl)-N-methylpicolinamide] | > 10000 nM | > 30 µM | 1.57 nM
9 | CCNC(=O)c1ccc(-n2cc3c(n2)CN(Cc2ccc4c([nH]c(=O)n5cc(C)nc45)c2F)C3)c(F)n1 [Example 52, N-ethyl-6-fluoro-5-(5-((7-fluoro-2-methyl-5-oxo-5,6-dihydroimidazo[1,2-c]quinazolin-8-yl)methyl)-5,6-dihydropyrrolo[3,4-c]pyrazol-2(4H)-yl)picolinamide] |  | > 30 µM | 0.92 nM
10 | CNC(=O)c1ccc(N2CC3=C(CN(Cc4ccc5c([nH]c(=O)c6c(F)cnn65)c4F)C3)C2)c(F)n1 [Example 58] |  | 2.41 µM | 2.97 nM
